# Data published in patent US20230348424A1, “HETEROCYCLIC COMPOUNDS AND METHODS OF USE” (Schrödinger, Inc., priority 2022, published 2023).
# pIC50, pKd: −log10 of the molar value.
# Target: SOS1:KRAS (G12C) interaction (Homo sapiens (Human), UniProt Q07889)
# Experiment: SOS1 KRas(G12C) FRET Assay
# Format: binding
# Conditions: 0.5 nM His10-SOS1 (res. 564-1049), 2.5 nM GST-KRAS G12C (res. 1-169), 2 hrs at RT
# Procedure, shortened: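 GST-KRAS G12C (res. 1-169) at 2.5 nM and His10-SOS1 (res. 564-1049) at 0.5 nM, final, in PBS with 0.1% BSA, 5 mM MgCl2, 100 mM KF, 5 mM DTT and 0.5% DMSO. After 2 h at RT, FRET read at 665/615 nm and normalized to DMSO and no-SOS1 controls. IC50 by non-linear regression.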
# SOS1:KRAS (G12C) interaction, sequence (Q07889 564-1049, stated change not applied): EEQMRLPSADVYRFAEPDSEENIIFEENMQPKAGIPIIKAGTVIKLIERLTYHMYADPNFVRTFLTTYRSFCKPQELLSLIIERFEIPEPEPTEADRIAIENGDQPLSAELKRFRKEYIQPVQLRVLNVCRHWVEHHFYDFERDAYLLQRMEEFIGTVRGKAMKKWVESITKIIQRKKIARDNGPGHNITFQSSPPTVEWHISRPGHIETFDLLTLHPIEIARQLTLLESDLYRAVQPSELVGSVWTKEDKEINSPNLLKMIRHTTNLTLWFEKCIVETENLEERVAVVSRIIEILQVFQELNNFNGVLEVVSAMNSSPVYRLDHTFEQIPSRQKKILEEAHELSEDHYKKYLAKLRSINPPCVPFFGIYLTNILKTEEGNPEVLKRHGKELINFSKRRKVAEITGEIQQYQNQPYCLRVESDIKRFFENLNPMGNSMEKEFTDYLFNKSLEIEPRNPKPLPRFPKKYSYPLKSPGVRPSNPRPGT
row,Structure (SMILES),pIC50
1,"C[C@@H](NC(=O)c1cn([C@@]2(C)CCOC2)c(=O)cc1NC1CCN(C)CC1)c1cccc(C(F)F)c1F (single isomer, unassigned) [Example 47]",8.35
2,"C[C@@H](NC(=O)c1cn([C@]23COC[C@H]2C3)c(=O)cc1NC1CCN(C)CC1)c1cccc(C(F)F)c1F [Example 285, 1-((1S,SS)-3-oxabicyclo[3.1.0]hexan-1-yl)-N-((R)-1-(3-(difluoromethyl)-2-fluorophenyl)ethyl)-4-((1-methylpiperidin-4-yl)amino)-6-oxo-1,6-dihydropyridine-3-carboxamide]",8.33
3,"[2H]C([2H])([2H])N1CCC(Nc2cc(=O)n(C3(C(F)F)CC3)cc2C(=O)N[C@H](C)c2cccc(C(F)F)c2F)CC1 [Example 286, (R)-N-(1-(3-(difluoromethyl)-2-fluorophenyl)ethyl)-1-(1-(difluoromethyl)cyclopropyl)-4-((1-(methyl-d3)piperidin-4-yl)amino)-6-oxo-1,6-dihydropyridine-3-carboxamide]",7.81
4,"C[C@@H](NC(=O)c1cn([C@]23COC[C@H]2C3)c(=O)cc1N[C@H]1[C@@H]2CN(C)C[C@@H]21)c1cccc(C(F)F)c1F [Example 287, 1-((1S,5S)-3-oxabicyclo[3.1.0]hexan-1-yl)-N-((R)-1-(3-(difluoromethyl)-2-fluorophenyl)ethyl)-4-(((1R,5S,6s)-3-methyl-3-azabicyclo[3.1.0]hexan-6-yl)amino)-6-oxo-1,6-dihydropyridine-3-carboxamide]",8.00
5,"C[C@@H](NC(=O)c1cn(C2(C(F)F)CC2)c(=O)cc1NC1CCN(C2(C)CC2)CC1)c1cccc(C(F)F)c1F [Example 288, (R)-N-(1-(3-(difluoromethyl)-2-fluorophenyl)ethyl)-1-(1-(difluoromethyl)cyclopropyl)-4-((1-(1-methylcyclopropyl)piperidin-4-yl)amino)-6-oxo-1,6-dihydropyridine-3-carboxamide]",7.63
6,"C[C@@H](NC(=O)c1cn([C@]23COC[C@H]2C3)c(=O)cc1N[C@H]1[C@@H]2CN(C)C[C@@H]21)c1cccc(C(C)(F)F)c1F [Example 289, 1-((1S,5S)-3-oxabicyclo[3.1.0]hexan-1-yl)-N-((R)-1-(3-(1,1-difluoroethyl)-2-fluorophenyl)ethyl)-4-(((1R,5S,6s)-3-methyl-3-azabicyclo[3.1.0]hexan-6-yl)amino)-6-oxo-1,6-dihydropyridine-3-carboxamide]",7.88
7,"C[C@@H](NC(=O)c1cn(C2(C(F)F)CC2)c(=O)cc1N[C@H]1[C@@H]2CC[C@H]1CN(C)C2)c1cccc(C(F)F)c1F [Example 293, N-((R)-1-(3-(difluoromethyl)-2-fluorophenyl)ethyl)-1-(1-(difluoromethyl)cyclopropyl)-4-(((1R,5S,8r)-3-(methyl-d3)-3-azabicyclo[3.2.1]octan-8-yl)amino)-6-oxo-1,6-dihydropyridine-3-carboxamide]",7.72
8,"C[C@@H](NC(=O)c1cn(C2(C(F)F)CC2)c(=O)cc1N[C@@H]1[C@@H]2CC[C@H]1CN(C)C2)c1cccc(C(F)F)c1F [Example 294, N-((R)-1-(3-(difluoromethyl)-2-fluorophenyl)ethyl)-1-(1-(difluoromethyl)cyclopropyl)-4-(((1R,5S,8s)-3-(methyl-d3)-3-azabicyclo[3.2.1]octan-8-yl)amino)-6-oxo-1,6-dihydropyridine-3-carboxamide]",7.27
9,"CCC12CC(n3cc(C(=O)N[C@H](C)c4cccc(C(F)F)c4F)c(NC4[C@H]5CN(C)C[C@@H]45)cc3=O)(C1)C2 (stereo partly drawn) [Example 313, N-((R)-1-(3-(difluoromethyl)-2-fluorophenyl)ethyl)-1-(3-ethylbicyclo[1.1.1]pentan-1-yl)-4-(((1R,5S,6s)-3-methyl-3-azabicyclo[3.1.0]hexan-6-yl)amino)-6-oxo-1,6-dihydropyridine-3-carboxamide]",7.98

# The next lines start with the values.
row,pIC50,Structure (SMILES)
1,7.40,"CO[C@@H]1CN(C)CC[C@H]1Nc1cc(=O)n(C2CCOCC2)cc1C(=O)N[C@H](C)c1cccc(C(F)(F)F)c1C (single isomer, unassigned) [Example 24]"
2,7.15,"CO[C@H]1CN(C)CC[C@@H]1Nc1cc(=O)n(C2CCOCC2)cc1C(=O)N[C@H](C)c1cccc(C(F)(F)F)c1C (single isomer, unassigned) [Example 25]"
3,7.46,"Cc1c([C@@H](C)NC(=O)c2cn(C3CCOCC3)c(=O)cc2NC2CCNCC2)cccc1C(F)(F)F [Example 282, (R)-N-(1-(2-methyl-3-(trifluoromethyl)phenyl)ethyl)-6-oxo-4-(piperidin-4-ylamino)-1-(tetrahydro-2H-pyran-4-yl)-1,6-dihydropyridine-3-carboxamide]"
4,6.86,"Cc1c([C@@H](C)NC(=O)c2cn(C3CCOCC3)c(=O)cc2NC2CCN(C)CC2(F)F)cccc1C(F)(F)F (stereo partly drawn) [Example 283, 4-((3,3-difluoro-1-methylpiperidin-4-yl)amino)-N-((R)-1-(2-methyl-3-(trifluoromethyl)phenyl)ethyl)-6-oxo-1-(tetrahydro-2H-pyran-4-yl)-1,6-dihydropyridine-3-carboxamide]"
5,7.64,"Cc1c([C@@H](C)NC(=O)c2cn(C3CCOCC3)c(=O)cc2NC2CCN(C3CC3)CC2)cccc1C(F)(F)F [Example 284, (R)-4-((1-cyclopropylpiperidin-4-yl)amino)-N-(1-(2-methyl-3-(trifluoromethyl)phenyl)ethyl)-6-oxo-1-(tetrahydro-2H-pyran-4-yl)-1,6-dihydropyridine-3-carboxamide]"
6,8.04,"C[C@@H](NC(=O)c1cn([C@]23COC[C@H]2C3)c(=O)cc1N[C@H]1[C@@H]2CN(C)C[C@@H]21)c1cccc(C(F)(F)F)c1F [Example 290, 1-((1S,5S)-3-oxabicyclo[3.1.0]hexan-1-yl)-N-((R)-1-(2-fluoro-3-(trifluoromethyl)phenyl)ethyl)-4-(((1R,5S,6s)-3-methyl-3-azabicyclo[3.1.0]hexan-6-yl)amino)-6-oxo-1,6-dihydropyridine-3-carboxamide]"
7,7.27,"COCCN1CC(CNc2cc(=O)n(C3CCOCC3)cc2C(=O)N[C@H](C)c2cccc(C(F)(F)F)c2C)C1 [Example 295, (R)-4-(((1-(2-methoxyethyl)azetidin-3-yl)methyl)amino)-N-(1-(2-methyl-3-(trifluoromethyl)phenyl)ethyl)-6-oxo-1-(tetrahydro-2H-pyran-4-yl)-1,6-dihydropyridine-3-carboxamide]"
8,7.68,"Cc1c([C@@H](C)NC(=O)c2cn(C3CCOCC3)c(=O)cc2NC2CCCn3cncc32)cccc1C(F)(F)F (stereo partly drawn) [Example 300, N-((R)-1-(2-methyl-3-(trifluoromethyl)phenyl)ethyl)-6-oxo-1-(tetrahydro-2H-pyran-4-yl)-4-((5,6,7,8-tetrahydroimidazo[1,5-a]pyridin-8-yl)amino)-1,6-dihydropyridine-3-carboxamide]"
9,7.34,"Cc1c([C@@H](C)NC(=O)c2cn(C3CCOCC3)c(=O)cc2NC[C@H]2CC[C@H](N(C)C)CC2)cccc1C(F)(F)F [Example 301, 4-((((1r,4R)-4-(dimethylamino)cyclohexyl)methyl)amino)-N-((R)-1-(2-methyl-3-(trifluoromethyl)phenyl)ethyl)-6-oxo-1-(tetrahydro-2H-pyran-4-yl)-1,6-dihydropyridine-3-carboxamide]"
10,7.50,"Cc1c([C@@H](C)NC(=O)c2cn(C3CCOCC3)c(=O)cc2NC[C@H]2CC[C@@H](N(C)C)CC2)cccc1C(F)(F)F [Example 302, 4-((((1s,4S)-4-(dimethylamino)cyclohexyl)methyl)amino)-N-((R)-1-(2-methyl-3-(trifluoromethyl)phenyl)ethyl)-6-oxo-1-(tetrahydro-2H-pyran-4-yl)-1,6-dihydropyridine-3-carboxamide]"
11,7.93,"C[C@@H](NC(=O)c1cn([C@@H]2CCOC(C)(C)C2)c(=O)cc1N[C@H]1[C@@H]2CN(C)C[C@@H]21)c1cccc(C(F)F)c1F [Example 309, N-((R)-1-(3-(difluoromethyl)-2-fluorophenyl)ethyl)-1-((R)-2,2-dimethyltetrahydro-2H-pyran-4-yl)-4-(((1R,5S,6s)-3-methyl-3-azabicyclo[3.1.0]hexan-6-yl)amino)-6-oxo-1,6-dihydropyridine-3-carboxamide]"
12,7.43,"C[C@@H](NC(=O)c1cn([C@H]2CCOC(C)(C)C2)c(=O)cc1N[C@H]1[C@@H]2CN(C)C[C@@H]21)c1cccc(C(F)F)c1F [Example 310, N-((R)-1-(3-(difluoromethyl)-2-fluorophenyl)ethyl)-1-((S)-2,2-dimethyltetrahydro-2H-pyran-4-yl)-4-(((1R,5S,6s)-3-methyl-3-azabicyclo[3.1.0]hexan-6-yl)amino)-6-oxo-1,6-dihydropyridine-3-carboxamide]"

# Target: human SOS1 (Homo sapiens (Human), UniProt Q07889)
# Experiment: Surface Plasmon Resonance (SPR) SOS1 Binding Assay
# Conditions: biotinylated SOS1 (res. 564-1049), Biacore 8K, 25° C., kinetic or steady state fit, 1:1 binding; read-out: hSOS1 KD
# Procedure: Binding to SOS1 was measured using a SPR assay with purified recombinant human SOS1 substrate (res. 564-1049 with N-terminal Avi tag; purified and biotinylated based on Hillig, et al., Proc Natl Acad Sci USA (2019); 116(7):2551-2560). SPR measurements were performed on a Biacore 8K SPR instrument (GE Healthcare, Sweden). Assays were performed at 25° C. using Series S SA sensor chips pre-coated with streptavidin (GE Healthcare, Cat. BR100531). Biotinylated SOS1 diluted in sample buffer (20 mM Tris HCI, 150 mM NaCl, 1 mM DTT, 0.05% TWEEN 20, 1 mM MgCh, pH 8.0) was captured to one flow cell of the chip to about 3,000 resonance units (RU) using sample buffer supplemented with 5% DMSO as a running buffer. Serial dilutions of the assayed compounds in the running buffer at 100, 50 or 0.5 µM were injected for 60 s at a flow rate of 30 µL/min and association phases were recorded. Dissociation of the samples was monitored for 600 s. Data processing was performed using Biacore Insight Software (Biacore, GE Healthcare). Sensorgrams recorded on a SA flow cell without captured protein were subtracted from sensorgrams recorded on the SOS1 surface. Blank injections of running buffer were used for double referencing and solvent correction was applied to all sample sensorgrams to correct for buffer mismatches. KDS were estimated using a kinetic or steady state, where applicable, fitting model describing a reversible equilibrium with 1:1 binding between SOS1 and the compound.
# human SOS1, sequence (Q07889 564-1049): as the sequence (Q07889 564-1049, stated change not applied) above
row,pKd,Structure (SMILES)
1,7.57,"CO[C@@H]1CN(C)CC[C@H]1Nc1cc(=O)n(C2CCOCC2)cc1C(=O)N[C@H](C)c1cccc(C(F)(F)F)c1C (single isomer, unassigned) [Example 24]"
2,7.35,"CO[C@H]1CN(C)CC[C@@H]1Nc1cc(=O)n(C2CCOCC2)cc1C(=O)N[C@H](C)c1cccc(C(F)(F)F)c1C (single isomer, unassigned) [Example 25]"
3,8.70,"C[C@@H](NC(=O)c1cn([C@@]2(C)CCOC2)c(=O)cc1NC1CCN(C)CC1)c1cccc(C(F)F)c1F (single isomer, unassigned) [Example 47]"
